The source of these data is ChEMBL document CHEMBL4483862, “Open-source discovery of chemical leads for next-generation chemoprotective antimalarials” (2018).

This experiment has as its system Plasmodium berghei. Put plainly: Luciferase/luciferin-expressing antifolate-resistant parasites were used to infect a culture of HepG2 cells that were pre-incubated with compounds. Infected hepatocytes emit light due to the luciferase reaction. Assay results are presented as the percent inhibition of light emission compared to control. […]. Type of experiment: functional. The note with it: sporozoite; for IC90: read-out: LUCIFERASE INFECTION ASSAY - IC90.

The mark [1] stands for this setting: read-out: LUCIFERASE INFECTION ASSAY - IC50.

As usually defined, the IC50 is the concentration that gives 50% inhibition. A word on the IC90: it is the concentration needed for an effect of 90%. On to `Cc1ccc(CNCc2nc(NCc3ccc(C)cc3)c3c(C)c(C)sc3n2)cc1`, for which the IC90 was found to be 4.22 µM. Also, where the note is “FFLUC_HILL_SLOPE 14.5, FFLUC_R_SQUARED 0.473, HEPG2TOX_HILL_SLOPE 357, HEPG2TOX_R_SQUARED 0.506, PBLUC_HILL_SLOPE 12.5, PBLUC_R_SQUARED 0.0149, read-out: LUCIFERASE INFECTION ASSAY - IC50”, the IC50 was 3.54 µM.

Consider `Cc1ccccc1-c1nc2oc3ccccc3c(=O)c2c(=O)n1Cc1ccccc1`, for which the IC90 stood at 5.78 µM. Besides, the IC50 (PBLUC_HILL_SLOPE 4.15, PBLUC_R_SQUARED 0.52, read-out: LUCIFERASE INFECTION ASSAY - IC50) was 3.4 µM.

Consider `COc1ccc(CC(=O)N2CCC3(CC2)OCc2ccccc2O3)cc1`, for which the IC90 was greater than 9.34 µM. The half-inhibitory concentration (IC50) (FFLUC_HILL_SLOPE 13.5, FFLUC_R_SQUARED 0.0841, HEPG2TOX_HILL_SLOPE 0.312, HEPG2TOX_R_SQUARED 0.567, read-out: LUCIFERASE INFECTION ASSAY - IC50) was greater than 9.34 µM.

For the molecule `Cc1cc(C(=O)CN(C)Cc2nc(=O)c3ccccc3[nH]2)c(C)n1CC1COc2ccccc2O1` (centres undefined), the IC90 is greater than 10 µM. For the same molecule, under setting [1], the IC50 turned out to be 0.371 µM.

On to `Cc1[nH]ncc1CCCNc1nc(C(F)(F)F)nc2ccccc12`, for which the IC90 was greater than 10 µM. Further, for the setting “FFLUC_HILL_SLOPE 6.95, FFLUC_R_SQUARED 0.127, read-out: LUCIFERASE INFECTION ASSAY - IC50”, the IC50 was greater than 10 µM.

As for `CC(C)N1CCC(NC(=O)c2ccc(COc3ccc4ccccc4c3)o2)CC1`, the IC90 came out at 9.06 µM. Moreover, where the note is “PBLUC_HILL_SLOPE 1.64, PBLUC_R_SQUARED 0.625, read-out: LUCIFERASE INFECTION ASSAY - IC50”, the IC50 came out at 2.37 µM.

`CC(C)(C)c1ccc(/C=C2\CCCc3c2nc2ccccc2c3C(=O)OCC(=O)N2CCOCC2)cc1`: the IC90 is greater than 10 µM. Under setting [1], the IC50 stood at 8.09 µM.

With `CN1CCN(C(=O)c2cccc(-c3cnc4cnc(-c5ccc(Cl)cc5)cn34)c2)CC1`, the IC90 was greater than 7.64 µM. Moreover, the IC50 under setting [1] is greater than 7.64 µM.

As for `COc1ccc(C(C)C)cc1-c1cnc(N)c(-c2ccc(F)c(Cl)c2)c1`, the IC90 is greater than 8.9 µM. For the same molecule, under “HEPG2TOX_HILL_SLOPE 11.3, HEPG2TOX_R_SQUARED 0.599, PBLUC_HILL_SLOPE 2.08, PBLUC_R_SQUARED 0.63, read-out: LUCIFERASE INFECTION ASSAY - IC50”, the IC50 is 3.98 µM.

`O=C(Nc1ccc(C(OC(=O)c2ccccc2)(C(F)(F)F)C(F)(F)F)cc1)c1ccccc1`: the IC90 was greater than 10 µM. Under setting [1], the IC50 was greater than 10 µM.

With `CCOC(=O)c1ccc(NC(=S)N/N=C/c2ccccc2O)cc1`, the IC90 worked out at 5.71 µM. Besides, the IC50 (HEPG2TOX_HILL_SLOPE 1.84, HEPG2TOX_R_SQUARED 0.879, PBLUC_HILL_SLOPE 113, PBLUC_R_SQUARED 0.459, read-out: LUCIFERASE INFECTION ASSAY - IC50) was 5.6 µM.

With `CCCN(CC(=O)Nc1ccccc1C)C(=O)Cn1nnc2ccccc21`, the concentration for an effect of 90% (IC90) was greater than 10 µM. Under setting [1], the IC50 is greater than 10 µM.

In the case of `O=C(Nc1ccc(Oc2cccc3cccnc23)cc1)c1cccs1`, the IC90 was greater than 9.53 µM. Further, the IC50 under setting [1] is greater than 9.53 µM.

For the molecule `CSc1nnnn1-c1cccc(NC(=O)c2cc(-c3cc(C)oc3C)nc3c2cnn3C(C)C)c1`, the IC90 is greater than 10 µM. The IC50 (FFLUC_HILL_SLOPE 1.52, FFLUC_R_SQUARED 0.0983, PBLUC_HILL_SLOPE 1.97, PBLUC_R_SQUARED 0.288, read-out: LUCIFERASE INFECTION ASSAY - IC50) came to 5.3 µM.

For `C=C(C)C(=O)Nc1ccc([N+](=O)[O-])cc1Cl`, the IC90 is greater than 13.7 µM. Moreover, the half-maximal inhibitory concentration (IC50) under setting [1] was greater than 13.7 µM.

Turning to `CCOc1ccc(C2NC(=O)NC(C)=C2C(=O)OCC2CCCO2)cc1OC` (centres undefined), the IC90 is greater than 8.45 µM. Besides, the IC50 under setting [1] is greater than 8.45 µM.

With `Cc1ccc(NNC(=O)c2cc3ccccc3o2)cc1Cl`, the IC90 is greater than 10 µM. Moreover, for the setting “PBLUC_HILL_SLOPE 2.35, PBLUC_R_SQUARED 0.383, read-out: LUCIFERASE INFECTION ASSAY - IC50”, the IC50 was 6.24 µM.

Take `COC(=O)c1c(N)[nH]c2cc(C(F)(F)F)ccc12`: the IC90 was greater than 12.8 µM. In addition, the IC50 under setting [1] was greater than 12.8 µM.

In the case of `C/C(=N\n1c(-c2cccc(Br)c2)cs/c1=N\c1ccc(Cl)cc1Cl)c1ccc2c(c1)OCO2`, the IC90 is greater than 10 µM. In addition, the IC50 (HEPG2TOX_HILL_SLOPE 4.14, HEPG2TOX_R_SQUARED 0.54, PBLUC_HILL_SLOPE 9.69, PBLUC_R_SQUARED 0.311, read-out: LUCIFERASE INFECTION ASSAY - IC50) came out at 9.72 µM.

As for `CSc1sc(C(=O)NC(=O)Nc2cccc(C(F)(F)F)c2)cc1C#N`, the IC90 is greater than 8.56 µM. Besides, the IC50 (FFLUC_HILL_SLOPE 12.6, FFLUC_R_SQUARED 0.0423, read-out: LUCIFERASE INFECTION ASSAY - IC50) was greater than 8.56 µM.

`Cn1c(CSc2cccs2)n[nH]c1=S`: the IC90 is greater than 13.6 µM. Further, the IC50 (FFLUC_HILL_SLOPE 40, FFLUC_R_SQUARED 0.0342, read-out: LUCIFERASE INFECTION ASSAY - IC50) is greater than 13.6 µM.

With `COc1cc2c(cc1OC)C1(NCC2)C(=O)Nc2ccccc21` (centres undefined), the IC90 is greater than 10 µM. Moreover, under setting [1], the IC50 was greater than 10 µM.

For `COc1cc(NS(=O)(=O)c2ccc(C)cc2)c(OC)cc1Cl`, the IC90 was 3.66 µM. For the same molecule, the IC50 under setting [1] worked out at 2.01 µM.

On to `Nc1c(C(=O)Nc2cc(Cl)cc(Cl)c2)sc(Nc2ccccc2)c1C(=O)Nc1ccc(Cl)cc1`, for which the IC90 was greater than 10 µM. In addition, the IC50 (FFLUC_HILL_SLOPE 1.81, FFLUC_R_SQUARED 0.586, read-out: LUCIFERASE INFECTION ASSAY - IC50) is greater than 10 µM.

`CN(C)C(=O)c1cccc(-c2cn3c(-c4ccc5c(ccn5C)c4)cnc3cn2)c1`: the IC90 is greater than 8.34 µM. In addition, the IC50 (HEPG2TOX_HILL_SLOPE 2.46, HEPG2TOX_R_SQUARED 0.94, PBLUC_HILL_SLOPE 1.63, PBLUC_R_SQUARED 0.793, read-out: LUCIFERASE INFECTION ASSAY - IC50) amounted to 2.64 µM.

Consider `Cc1cc(C(=O)CN2CCc3sccc3C2)c(C)n1Cc1cccs1`, for which the IC90 is greater than 10 µM. For the same molecule, the IC50 under setting [1] amounted to 2.21 µM.

For `Cc1c(S(=O)(=O)c2ccc(Cl)cc2)csc1C(=O)Nc1cc(C(F)(F)F)cc(C(F)(F)F)c1`, the IC90 is greater than 6.25 µM. Besides, the IC50 (FFLUC_HILL_SLOPE 11.9, FFLUC_R_SQUARED 0.653, HEPG2TOX_HILL_SLOPE 12.6, HEPG2TOX_R_SQUARED 0.751, PBLUC_HILL_SLOPE 2.69, PBLUC_R_SQUARED 0.583, read-out: LUCIFERASE INFECTION ASSAY - IC50) amounted to 3.24 µM.

On to `CCCOc1c(Cl)cc(C(=O)N2CCN(c3cccc(C)c3C)CC2)cc1OC`, for which the IC90 was greater than 10 µM. Under “HEPG2TOX_HILL_SLOPE 9.26, HEPG2TOX_R_SQUARED 0.489, PBLUC_HILL_SLOPE 10.9, 0.598, PBLUC_R_SQUARED 0.349, 0.728, read-out: LUCIFERASE INFECTION ASSAY - IC50”, the IC50 amounted to 3.13 µM.

With `CCN(C(=O)CSc1nc2cc(C(=O)O)ccc2c(=O)n1Cc1ccccc1)c1ccccc1`, the IC90 was greater than 10 µM. Moreover, the half-maximal inhibitory concentration (IC50) under setting [1] was greater than 10 µM.

Consider `Cc1nc2nc(C(F)(F)F)nn2c(C)c1CCC(=O)N1CCCC1c1ccc2c(c1)OCCCO2` (centres undefined), for which the IC90 was 8.93 µM. Besides, for the setting “PBLUC_HILL_SLOPE 2.87, PBLUC_R_SQUARED 0.605, read-out: LUCIFERASE INFECTION ASSAY - IC50”, the IC50 is 4.15 µM.

In the case of `Cc1n(C)c2c([n+]1C)C(=O)c1ccccc1C2=O`, the IC90 worked out at 0.128 µM. Besides, the IC50 (HEPG2TOX_HILL_SLOPE 0.401, HEPG2TOX_R_SQUARED 0.884, PBLUC_HILL_SLOPE 1.09, PBLUC_R_SQUARED 0.944, read-out: LUCIFERASE INFECTION ASSAY - IC50) was 0.017 µM.

Consider `c1cnc2ccc(-c3cnc4cnc(-c5ccsc5)cn34)cc2c1`, for which the IC90 was greater than 10 µM. For the same molecule, the IC50 (HEPG2TOX_HILL_SLOPE 5.76, HEPG2TOX_R_SQUARED 0.0288, PBLUC_HILL_SLOPE 1.24, PBLUC_R_SQUARED 0.576, read-out: LUCIFERASE INFECTION ASSAY - IC50) came to 3.87 µM.

Turning to `Cc1c(C#N)c(Sc2ccccc2NC(=O)c2ccco2)nc2ccccc12`, the IC90 turned out to be 8.38 µM. Moreover, the IC50 (HEPG2TOX_HILL_SLOPE 2.88, HEPG2TOX_R_SQUARED 0.661, PBLUC_HILL_SLOPE 2.8, PBLUC_R_SQUARED 0.14, read-out: LUCIFERASE INFECTION ASSAY - IC50) was 3.82 µM.

For the molecule `CC(=O)Nc1ccc(/C=C2\COc3c(Cl)cc(Cl)cc3C2=O)cc1`, the IC90 was greater than 10 µM. Besides, the IC50 (FFLUC_HILL_SLOPE 4.35, FFLUC_R_SQUARED 0.359, read-out: LUCIFERASE INFECTION ASSAY - IC50) is greater than 10 µM.

With `CCOC(=O)/C=C/c1ccc(NC(=O)C2CCCN2c2ncnc3ccccc23)cc1` (centres undefined), the IC90 was greater than 10 µM. Besides, the IC50 (HEPG2TOX_HILL_SLOPE 2.7, HEPG2TOX_R_SQUARED 0.523, PBLUC_HILL_SLOPE 3.32, PBLUC_R_SQUARED 0.679, read-out: LUCIFERASE INFECTION ASSAY - IC50) turned out to be 6.13 µM.

Turning to `CCN(CC)S(=O)(=O)c1ccc(N2CCOCC2)c(NC(=O)c2cc(-c3cc(OC)c(OC)c(OC)c3)nc3ccccc23)c1`, the IC90 was found to be 8.54 µM. For the same molecule, the IC50 (PBLUC_HILL_SLOPE 2.9, PBLUC_R_SQUARED 0.79, read-out: LUCIFERASE INFECTION ASSAY - IC50) amounted to 4.01 µM.

Take `Cc1ccc(NC2=CC(=O)CC(c3ccco3)C2)c(N)c1` (centres undefined): the IC90 was 6.68 µM. The IC50 (HEPG2TOX_HILL_SLOPE 7.93, HEPG2TOX_R_SQUARED 0.791, PBLUC_HILL_SLOPE 1.82, PBLUC_R_SQUARED 0.701, read-out: LUCIFERASE INFECTION ASSAY - IC50) came out at 2 µM.
